Measurements from patent publication US8946216B2, “Indazole derivatives useful as ERK inhibitors” (Merck Sharp & Dohme Corp., priority 2010, dated 2015).

Tests used:
[1] = target: unphosphorylated Mouse ERK2 protein (inactive ERK2) (Mus musculus, UniProt P63085); experiment: Coupled ERK2 (cERK) assay, coupled MEK1/ERK2 IMAP; assay type: biochemical; conditions: 30 min preincubation with inactive ERK2, then activation by human MEK1; 30 μM ATP; fluorescence polarization; read-out: cERK2 IC50
Procedure, shortened: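 Compound was preincubated with 0.4 ng unphosphorylated mouse ERK2 in Tris pH 7.2/MgCl2/DTT buffer (6.7% DMSO). ERK2 was then activated for 1 h by 2 ng active human MEK1 with 4 μM IMAP substrate peptide (100 nM fluorescein-labelled) and 30 μM ATP (final, 4% DMSO). Phosphorylation was read by IMAP bead fluorescence polarization after 30 min binding.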

[2] = target: fully phosphorylated, active Mouse ERK2 protein (Mus musculus, UniProt P63085); experiment: Active ERK2 (aERK) assay, IMAP format; assay type: biochemical; conditions: 30 min preincubation; 1 μM substrate peptide, 30 μM ATP; fluorescence polarization; read-out: aERK2 IC50
Method: Active ERK2 (aERK) Assay:
Activated ERK2 activity was also determined in the IMAP assay format using the procedure outlined above. 1 μl of 25× compound was added to 14 μl of kinase buffer containing 0.25 ng fully phosphorylated, active Mouse ERK2 protein. Following a 30 minute incubation, the reactions were initiated by addition of 10 μl of kinase buffer containing 1 μM ERK2 IMAP substrate peptide (0.9 μM unlabeled IPTTPITTTYFFFK--CONH2 and 100 nM IPTTPITTTYFFFK(5-carboxyfluorescein)-CONH2) and 30 μM ATP. Reactions proceeded for 30 minutes before termination by addition of 60 μl IMAP detection beads in binding buffer. Plates were read as above after 30 minute binding equilibration. Active compounds were reconfirmed in an independent assay.

[3] = target: ERK protein (Homo sapiens, UniProt P28482); experiment: TdF (Temperature Dependence Fluorescence, thermal shift) assay for ERK; assay type: binding; conditions: read-out: TdF Kd; 3 μM ERK protein, 15, 50 or 100 μM compound, Sypro Orange; Kd calculated from ΔTm; uncertainty estimated ±50%
Procedure, shortened: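 Thermal shift with Sypro Orange: samples containing 3 μM in 2% final DMSO heated 30 to 90 °C at 1 °C/min, fluorescence at ex 490/em 560 nm. Kd derived from ΔTm versus protein alone by the Brandts–Lin model, with ΔCpL set to 0 and ΔHL to −7 kcal/mol; uncertainty ±50%.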

fully phosphorylated, active Mouse ERK2 protein, sequence (P63085 whole entry): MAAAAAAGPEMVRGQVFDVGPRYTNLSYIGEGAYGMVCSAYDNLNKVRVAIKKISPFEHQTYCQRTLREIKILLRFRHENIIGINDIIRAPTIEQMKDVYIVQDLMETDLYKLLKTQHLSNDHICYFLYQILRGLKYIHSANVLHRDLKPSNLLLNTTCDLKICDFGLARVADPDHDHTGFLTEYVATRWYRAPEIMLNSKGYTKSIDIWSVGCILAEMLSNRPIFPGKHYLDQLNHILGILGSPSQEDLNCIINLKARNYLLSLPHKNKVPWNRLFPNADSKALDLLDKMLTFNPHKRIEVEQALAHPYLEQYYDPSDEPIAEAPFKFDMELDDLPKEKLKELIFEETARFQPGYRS
unphosphorylated Mouse ERK2 protein (inactive ERK2), sequence (P63085 whole entry): as above
ERK protein, sequence (P28482 2-360): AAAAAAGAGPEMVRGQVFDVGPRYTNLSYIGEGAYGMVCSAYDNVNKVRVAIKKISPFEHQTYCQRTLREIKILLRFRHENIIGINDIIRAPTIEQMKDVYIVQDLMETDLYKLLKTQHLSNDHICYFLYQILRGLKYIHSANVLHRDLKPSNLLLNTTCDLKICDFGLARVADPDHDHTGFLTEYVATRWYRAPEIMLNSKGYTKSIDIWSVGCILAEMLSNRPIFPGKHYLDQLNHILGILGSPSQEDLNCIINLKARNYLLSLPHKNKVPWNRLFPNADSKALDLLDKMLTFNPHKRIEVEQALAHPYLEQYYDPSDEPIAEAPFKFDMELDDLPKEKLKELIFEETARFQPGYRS

CSc1ccc(CN2CCOC(C(=O)Nc3ccc4[nH]nc(-c5ccncc5)c4c3)C2)cc1 (stereo not drawn) [Compound 34, 4-[[4-(METHYLTHIO)PHENYL]METHYL]-N-[3-(4-PYRIDINYL)-1H-INDAZOL-5-YL]-2-MORPHOLINECARBOXAMIDE]
IC50 [1]: 0.508 µM | IC50 [2]: 0.957 µM | Kd [3]: 0.423 µM

O=C(Nc1ccc2[nH]nc(-c3ccncc3)c2c1)C1CNCCC1c1ccccc1 (stereo not drawn) [Compound 53, 4-PHENYL-N-[3-(4-PYRIDINYL)-1H-INDAZOL-5-YL]-3-PIPERIDINECARBOXAMIDE]
IC50 [1]: 0.0695 µM | IC50 [2]: 0.102 µM | Kd [3]: 0.07 µM

O=C(Nc1ccc2[nH]nc(-c3ccncc3)c2c1)C1CN(Cc2ccccc2F)CCO1 (stereo not drawn) [Compound 4, 4-[(2-FLUOROPHENYL)METHYL]-N-[3-(4-PYRIDINYL)-1H-INDAZOL-5-YL]-2-MORPHOLINECARBOXAMIDE]
IC50 [1]: 0.0293 µM | IC50 [2]: 0.0207 µM | Kd [3]: 0.02 µM

O=C(Nc1ccc2[nH]nc(-c3ccncc3)c2c1)C1CN(Cc2c(F)cccc2F)CCO1 (stereo not drawn) [Compound 44, 4-[(2,6-DIFLUOROPHENYL)METHYL]-N-[3-(4-PYRIDINYL)-1H-INDAZOL-5-YL]-2-MORPHOLINECARBOXAMIDE]
IC50 [1]: 0.109 µM | IC50 [2]: 0.0692 µM | Kd [3]: 0.165 µM

O=C(Nc1ccc2[nH]nc(-c3ccncc3)c2c1)C1CN(Cc2cccc(Cl)c2)CCO1 (stereo not drawn) [Compound 29, 4-[(3-CHLOROPHENYL)METHYL]-N-[3-(4-PYRIDINYL)-1H-INDAZOL-5-YL]-2-MORPHOLINECARBOXAMIDE]
IC50 [1]: 0.151 µM | IC50 [2]: 0.123 µM | Kd [3]: 0.141 µM

O=C(Nc1ccc2[nH]nc(-c3ccncc3)c2c1)C1CN(Cc2ccccn2)CCO1 (stereo not drawn) [Compound 5, N-[3-(4-PYRIDINYL)-1H-INDAZOL-5-YL]-4-(2-PYRIDINYLMETHYL)-2-MORPHOLINECARBOXAMIDE]
IC50 [1]: 2.44 µM | IC50 [2]: 1.07 µM | Kd [3]: 0.647 µM

O=C(Nc1ccc2[nH]nc(-c3ccncc3)c2c1)C1CNCCC1c1ccc(F)cc1 (stereo not drawn) [Compound 52, 4-(4-FLUOROPHENYL)-N-(3-(PYRIDIN-4-YL)-1H-INDAZOL-5-YL)PIPERIDINE-3-CARBOXAMIDE]
IC50 [1]: 0.0608 µM | IC50 [2]: 0.0565 µM | Kd [3]: 0.018 µM

O=C(Nc1ccc2[nH]nc(-c3ccncc3)c2c1)C1CN(Cc2ccccc2Cl)CCS1 (stereo not drawn) [Compound 9, 4-[(2-CHLOROPHENYL)METHYL]-N-[3-(4-PYRIDINYL)-1H-INDAZOL-5-YL]-2-THIOMORPHOLINECARBOXAMIDE]
IC50 [1]: 0.0424 µM | IC50 [2]: 0.0542 µM | Kd [3]: 0.02 µM

CC(C)Oc1ccc(-c2n[nH]c3ccc(NC(=O)C4CN(Cc5ccccc5)CCO4)cc23)cn1 (stereo not drawn) [Compound 1, N-[3-[6-(1-METHYLETHOXY)-3-PYRIDINYL]-1H-INDAZOL-5-YL]-4-(PHENYLMETHYL)-2-MORPHOLINECARBOXAMIDE]
IC50 [1]: 0.532 µM | IC50 [2]: 1 µM | Kd [3]: 0.24 µM

O=C(Nc1ccc2[nH]nc(-c3ccncc3)c2c1)C1(CO)CCCN(Cc2ccccc2)C1 (stereo not drawn) [Compound 66, 3-(HYDROXYMETHYL)-1-(PHENYLMETHYL)-N-[3-(4-PYRIDINYL)-1H-INDAZOL-5-YL]-3-PIPERIDINECARBOXAMIDE]
IC50 [1]: 1 µM | IC50 [2]: 0.439 µM | Kd [3]: 0.104 µM

O=C(Nc1ccc2[nH]nc(-c3ccncc3)c2c1)C1CN(Cc2c(F)cccc2Cl)CCO1 (stereo not drawn) [Compound 37, 4-[(2-CHLORO-6-FLUOROPHENYL)METHYL]-N-[3-(4-PYRIDINYL)-1H-INDAZOL-5-YL]-2-MORPHOLINECARBOXAMIDE]
IC50 [1]: 0.173 µM | IC50 [2]: 0.111 µM | Kd [3]: 0.027 µM

O=C(Nc1ccc2[nH]nc(-c3ccncc3)c2c1)C1CN(Cc2c(F)ccc(Cl)c2F)CCO1 (stereo not drawn) [Compound 47, 4-[(3-CHLORO-2,6-DIFLUOROPHENYL)METHYL]-N-[3-(4-PYRIDINYL)-1H-INDAZOL-5-YL]-2-MORPHOLINECARBOXAMIDE]
IC50 [1]: 0.452 µM | IC50 [2]: 0.581 µM | Kd [3]: 0.223 µM
